Results from patent US20250169505A1, “INSECT PEST CONTROL BY A MIXTURE OF LURING SUBSTANCES WITH PATHOGENIC BIO-INSECTICIDES” (GREEN PROTECTA SA, priority 2022, published 2025).

Test system: thrips (Frankliniella occidentalis)
Experiment: Example 1: powder adherence on thrips body
Type: in vivo
Details: mesh cage, Petri dish filled with powdery carrier
Description: From 250 individual thrips (Frankliniella occidentalis) sourced from the company Bionema Limited in Swansea, 50 were released in mesh cages where fresh flowers and green beans were growing, and which contained a Petri dish filled with one powdery carriers.

Structure (SMILES): O=C(CO)[C@@H](O)[C@H](O)[C@H](O)CO [fructose]
- fate of thrips after contact with the powder: died thereafter

Structure (SMILES): CCCCCCCCCCCCCCCCCC(=O)O [stearic acid]
- fate of thrips after contact with the powder: died thereafter
